Data on seven compounds can be found in US4537962A, “Substituted 1,3,4-thiadiazolo[3,2-A]pyrimidines and compositions containing them” (Farmitalia Carlo Erba, S.p.A., priority 1982, dated 1985).

A short description of data set [1]: approximate acute toxicity (LD50) in the mouse. The settings on record: in vivo, po, per os, single administration of increasing doses, measured on the seventh day after the day of treatment. The source says:
In view of their high therapeutic index, the compounds of the invention can be used safely in medicine, For example, the approximate acute toxicity (LD50) of the compounds 7-trans-(2-phenyl-ethenyl)-5H-1,3,4-thiadiazolo[3,2-a]pyrimidine-5-one, 2-methyl-7-trans-(2-phenyl-ethenyl)-5H-1,3,4-thiadiazolo[3,2-a]pyrimidine- 5-one, 7-trans-[2-(2,6-dichloro-phenyl)-ethenyl]-5H-1,3,4-thiadiazolo[3,2-a]pyrimidine-5-one, 7-trans-[2-(3-pyridyl)-ethenyl]-5H-1,3,4-thiadiazolo[3,2-a]pyrimidine-5-one, 7-trans-[2-(4-fluoro-phenyl)-ethenyl]-5H-1,3,4-thiadiazolo[3,2-a]pyrimidine-5-one, 2-phenyl-7-trans-[2-(3-pyridyl)-ethenyl]-5H-1,3,4-thiadiazolo[3,2-a]pyrimidine-5-one and 2-(4-methyl-phenyl)-7-trans-[2-(3-pyridyl)-ethenyl]-5H-1,3,4-thiadiazolo[3,2-a]pyrimidine-5-one in the mouse, determined by single administration of increasing doses and measured on the seventh day after the day of treatment, is higher than 800 mg/kg per os. Analogous toxicity data have been found for the other compounds of the invention.

A further data set has as its system restraint ulcers. Briefly: inhibition of restraint ulcers in rats (anti-ulcerogenic activity, method of Bonfils et al.). The conditions noted are these: po; approximate ED50; rat, p.o. one hour before the immobilization; 4 hours immobilization; read-out: Antiulcerogenic activity p.o., ED50. It counts as in vivo, Sprague-Dawley male rats. The source says:
The compounds of the present invention are active on the gastroenteric system, in particular they are endowed with anti-ulcerogenic and gastric anti-secretory activity and are therefore useful in therapy, for example in the prevention and treatment of peptic, e.g. duodenal, gastric and exophageal ulcers and to inhibit gastric acid secretion. The compounds of the invention are also useful for reducing the undesirable gastrointestinal side-effects resulting from systemic administration of anti-inflammatory prostaglandin synthetase inhibitors and may be, therefore, used for this purpose in association with them. The anti-ulcerogenic activity of the compounds of the invention is shown, e.g., by the fact that they are active in the test of the inhibition of restraint ulcers in rats, according to the method of Bonfils et al., (Therapie, 1960, 15, 1096; Jap. J. Pharmac. 1968, 18, 9).
Six Sprague-Dawley male rats (100-120 g) fasted 24 hours were used for the experiment: a square flexible small-mesh wire netting was used for the immobilization and 4 hours after the immobilization the rats were sacrificed, their stomachs were removed and the lesions counted under a dissecting microscope. The tested compounds were administered per os (p.o.) one hour before the immobilization.

A further data set relates to gastric secretion. The experiment in a line: gastric antisecretory activity in rats by the pylorus ligature technique (method of H. Shay et al.). It counts as in vivo, Sprague-Dawley male rats. The settings on record: 4 h; approximate ED50; rat, intraduodenal, four hours after pylorus ligature. The method, then:
Gastric antisecretory activity was evaluated in rats by the pylorus ligature technique. Six Sprague-Dawley male rats (110-130 g) were used for each group. Twenty-four hours before the test, the rats were deprived of food but their water supply was maintained. On the day of the operation, the pylorus was ligated under light ether anaesthesia. Each compound was injected intraduodenally (i.d.) at the time of the ligature. Four hours after the ligature the rats were sacrificed, the stomach secretion was collected and centrifuged at 3500 r.p.m. for 10 minutes, and the volume, less sediment, was determined.
The amount of the free hydrochloric acid in the gastrc juice was determined by titration against 0.01N sodium hydroxide to pH 7.0 on the pH-meter.

On to `O=c1cc(/C=C/c2cccnc2)nc2sc(-c3ccccc3)nn12` [2-phenyl-7-trans-[2-(3-pyridyl)-ethenyl]-5H-1,3,4-thiadiazolo[3,2-a]pyrimidine-5-one], for which the LD50 (usually the dose expected to kill half of the subjects tested) at 168 h in data set [1] is over 800 mg/kg. Also, the ED50 (in general, the dose that gives a 50% effect, or the effect in half of the subjects) in the data set on restraint ulcers was 3 mg/kg.

Take `O=c1cc(/C=C/c2c(Cl)cccc2Cl)nc2scnn12` [7-trans-[2-(2,6-dichloro-phenyl)-ethenyl]-5H-1,3,4-thiadiazolo[3,2-a]pyrimidine-5-one]: in data set [1], the median lethal dose (LD50) at 168 h is over 800 mg/kg.

As to `Cc1ccc(-c2nn3c(=O)cc(/C=C/c4cccnc4)nc3s2)cc1` [2-(4-methyl-phenyl)-7-trans-[2-(3-pyridyl)-ethenyl]-5H-1,3,4-thiadiazolo[3,2-a]pyrimidine-5-one], the ED50 with gastric secretion is about 50 mg/kg. For the same compound, in data set [1], the LD50 at 168 h is over 800 mg/kg.

As for `O=c1cc(/C=C/c2ccc(F)cc2)nc2scnn12`, the LD50 at 168 h in data set [1] was over 800 mg/kg.

The compound `O=c1cc(/C=C/c2ccccc2)nc2scnn12` [7-trans-(2-phenyl-ethenyl)-5H-1,3,4-thiadiazolo[3,2-a]pyrimidine-5-one] showed an LD50 at 168 h in data set [1] of over 800 mg/kg.

As for `O=c1cc(/C=C/c2cccnc2)nc2scnn12` [7-trans-[2-(3-pyridyl)-ethenyl]-5H-1,3,4-thiadiazolo[3,2-a]pyrimidine-5-one], the median lethal dose (LD50) at 168 h in data set [1] is over 800 mg/kg.

For `Cc1nn2c(=O)cc(/C=C/c3ccccc3)nc2s1` [2-methyl-7-trans-(2-phenyl-ethenyl)-5H-1,3,4-thiadiazolo[3,2-a]pyrimidine-5-one], the LD50 at 168 h in data set [1] is over 800 mg/kg.
